In assay [1] the target is Tyrosine-protein kinase ABL1 (Homo sapiens, UniProt P00519).
The target in assay [2] is Tyrosine-protein kinase ABL1 (Homo sapiens, UniProt P00519, T315I).
Assay [3] in a line: cells. The settings on record: Mus musculus, BaF3.
Description: Antiproliferative activity against mouse BA/F3 cells expressing wild type BCR-ABL
Assay [4] can be described thus: cells. The following applies: Mus musculus, BaF3. The source holds these as a separate data set.
Assay [5] is described as follows: cells. The following applies: Mus musculus, BaF3. The source holds these as a separate data set.
Description: Antiproliferative activity against BCR-ABL-negative parental mouse BA/F3 cells

IC50 data for 14 compounds are collected here from ChEMBL document CHEMBL1781971, “Discovery of 5-(arenethynyl) hetero-monocyclic derivatives as potent inhibitors of BCR-ABL including the T315I gatekeeper mutant” (Bioorg Med Chem Lett, 2011).

For `Cc1ccc(C(=O)Nc2ccc(CN3CCN(C)CC3)c(C(F)(F)F)c2)cc1C#Cc1cccnc1`, the IC50 (usually the concentration at which inhibition is half-maximal) turned out to be 40.3 nM in assay [1]; 123 nM in assay [2]; 4.1 nM in “cells [3]”; 45.5 nM in “cells [4]”; 2040 nM in the assay “cells [5]”.

`Cc1ccc(C(=O)Nc2ccc(CN3CCN(CC(=O)O)CC3)c(C(F)(F)F)c2)cc1C#Cc1cnc(C(N)=O)n1C`: the IC50 in assay [1] stood at 4.3 nM; in assay [2], 106 nM; in “cells [3]”, 7.6 nM; in “cells [4]” it was 64 nM; in the assay “cells [5]” it was 10000 nM.

Regarding `Cc1ccc(C(=O)Nc2ccc(CN3CCN(C)CC3)c(C(F)(F)F)c2)cc1C#Cc1cnc(C(=O)NCCO)n1C`, the IC50 in assay [1] was 55 nM; in assay [2], 301 nM; in “cells [3]”, 3.9 nM; in “cells [4]”, 64 nM; in the assay “cells [5]” it was 1600 nM.

In the case of `CCC(=O)Nc1ccc(C#Cc2cc(C(=O)Nc3ccc(CN4CCN(C)CC4)c(C(F)(F)F)c3)ccc2C)cn1`, the IC50 in assay [1] amounted to 28.6 nM; in assay [2], 104 nM; in “cells [3]”, 2.5 nM; in “cells [4]”, 13.4 nM; in the assay “cells [5]” it was 1660 nM.

As to `Cc1ccc(C(=O)Nc2ccc(CN3CCN(C)CC3)c(C(F)(F)F)c2)cc1C#Cc1cnc(NC2CC2)nc1`, the IC50 in assay [1] was determined as 49.7 nM; in assay [2] it was 457 nM; in “cells [3]”, 195 nM; in the assay “cells [4]”, 519 nM; in the assay “cells [5]”, 607 nM.

Turning to `Cc1ccc(C(=O)Nc2ccc(CN3CCN(C)CC3)c(C(F)(F)F)c2)cc1C#Cc1cnc(N)s1`, the IC50 is 29 nM in assay [1]; 139 nM in assay [2]; 2.8 nM in the assay “cells [3]”; 17.5 nM in the assay “cells [4]”; 1270 nM in “cells [5]”.

With `CC(=O)Nc1ncc(C#Cc2cc(C(=O)Nc3ccc(CN4CCN(C)CC4)c(C(F)(F)F)c3)ccc2C)s1`, the IC50 in assay [1] was 12 nM; in assay [2], 27 nM; in “cells [3]”, 0.67 nM; in the assay “cells [4]”, 5.5 nM; in the assay “cells [5]”, 97 nM.

Consider `Cc1ccc(C(=O)Nc2ccc(CN3CCN(C)CC3)c(C(F)(F)F)c2)cc1C#Cc1cnc(C)n1C`, for which the IC50 in assay [1] was 72.6 nM; in assay [2], 362 nM; in the assay “cells [3]”, 8.5 nM; in “cells [4]” it was 69 nM; in the assay “cells [5]” it was 1790 nM.

On to `CC(=O)Nc1ccc(C#Cc2cc(C(=O)Nc3ccc(CN4CCN(C)CC4)c(C(F)(F)F)c3)ccc2C)cn1`, for which the IC50 came out at 18 nM in assay [1]; 121 nM in assay [2]; 2.2 nM in the assay “cells [3]”; 9.6 nM in “cells [4]”; 1790 nM in “cells [5]”.

As for `COCCN1CCN(Cc2ccc(NC(=O)c3ccc(C)c(C#Cc4cnc(C(N)=O)n4C)c3)cc2C(F)(F)F)CC1`, the IC50 in assay [1] came out at 4.8 nM; in assay [2] it was 140 nM; in “cells [3]”, 0.65 nM; in the assay “cells [4]” it was 10.8 nM; in the assay “cells [5]”, 2380 nM.

With `CNC(=O)c1ncc(C#Cc2cc(C(=O)Nc3ccc(CN4CCN(C)CC4)c(C(F)(F)F)c3)ccc2C)n1C`, the IC50 came out at 17.4 nM in assay [1]; 18 nM in assay [2]; 1.7 nM in the assay “cells [3]”; 4 nM in the assay “cells [4]”; 1580 nM in “cells [5]”.

Turning to `Cc1ccc(C(=O)Nc2ccc(CN3CCN(C)CC3)c(C(F)(F)F)c2)cc1C#Cc1cnc[nH]1`, the IC50 turned out to be 1000 nM in assay [1]; 3720 nM in assay [2]; 730 nM in “cells [3]”; 5740 nM in the assay “cells [4]”; 6550 nM in “cells [5]”.

For the compound `Cc1ccc(C(=O)Nc2ccc(CN3CCN(C)CC3)c(C(F)(F)F)c2)cc1C#Cc1ccc(C(N)=O)nc1`, the IC50 in assay [1] was 48.7 nM; in assay [2] it was 321 nM; in “cells [3]”, 2.6 nM; in “cells [4]” it was 18 nM; in “cells [5]” it was 1020 nM.

With `Cc1ccc(C(=O)Nc2ccc(CN3CCN(C)CC3)c(C(F)(F)F)c2)cc1C#Cc1cncn1C`, the IC50 in assay [1] was 129 nM; in assay [2] it was 550 nM; in the assay “cells [3]” it was 43 nM; in “cells [4]”, 709 nM; in “cells [5]”, 5650 nM.
